Experimental data published in patent US20240209005A1, “BICYCLIC HETEROARYL BORONATE DERIVATIVES AS ECTONUCLEOTIDE PYROPHOSPHATASE PHOSPHODIESTERASE 1 INHIBITORS” (RIBOSCIENCE LLC, priority 2021, published 2024).

Each compound was assayed against T1, ENPP1 (Homo sapiens, UniProt P22413) (assay: Measurement of pNP-TMP hydrolysis by ENPP1). Settings: purified ENPP1, pNP-TMP substrate 500 μM, KM 232 μM; Ki calculated from IC50 by Cheng-Prusoff.
T1 sequence (P22413 1-925): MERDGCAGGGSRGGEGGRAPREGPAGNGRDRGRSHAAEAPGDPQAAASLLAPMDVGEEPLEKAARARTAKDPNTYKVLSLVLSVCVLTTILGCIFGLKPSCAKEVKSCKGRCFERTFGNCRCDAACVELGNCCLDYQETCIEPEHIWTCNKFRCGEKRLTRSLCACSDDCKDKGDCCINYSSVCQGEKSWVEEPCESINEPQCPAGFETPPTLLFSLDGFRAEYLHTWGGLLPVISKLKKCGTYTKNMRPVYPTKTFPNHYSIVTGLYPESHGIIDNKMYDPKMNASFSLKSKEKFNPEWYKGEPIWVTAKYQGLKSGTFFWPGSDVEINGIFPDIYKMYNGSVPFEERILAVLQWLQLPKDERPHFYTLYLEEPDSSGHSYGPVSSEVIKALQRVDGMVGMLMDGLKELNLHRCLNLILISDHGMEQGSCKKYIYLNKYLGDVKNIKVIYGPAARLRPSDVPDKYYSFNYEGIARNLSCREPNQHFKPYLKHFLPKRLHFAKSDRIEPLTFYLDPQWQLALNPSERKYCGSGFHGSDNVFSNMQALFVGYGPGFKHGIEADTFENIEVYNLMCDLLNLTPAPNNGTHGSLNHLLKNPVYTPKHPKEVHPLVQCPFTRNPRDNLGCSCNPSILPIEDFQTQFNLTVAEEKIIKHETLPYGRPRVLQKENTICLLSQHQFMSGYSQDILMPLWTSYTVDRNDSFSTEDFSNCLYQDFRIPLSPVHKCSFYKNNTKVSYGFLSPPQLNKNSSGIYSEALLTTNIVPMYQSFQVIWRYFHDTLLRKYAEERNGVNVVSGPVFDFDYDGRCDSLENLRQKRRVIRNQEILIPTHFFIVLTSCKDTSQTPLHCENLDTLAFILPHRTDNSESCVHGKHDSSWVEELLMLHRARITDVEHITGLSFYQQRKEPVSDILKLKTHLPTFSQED
Type: biochemical
Experimental: p-Nitrophenyl thymidine 5′-monophosphate (pNP-TMP) is a synthesized substrate for ENPP1. The ENPP1 enzyme activity assay with pNP-TMP substrate was conducted as follows:
Incubation of ENPP1 with compounds was set at 25° C. for 10 min. […] For each compound dilution, wells with assay buffer (50 mM Tris-HCl, pH8.8, 250 mM NaCl, 0.1 mg/ml BSA, 1% DMSO) only but no ENPP1 were included as controls for subtraction of test compound derived absorbance at 405 nm.
Absorbance at 405 nm was recorded immediately in kinetic mode by PerkinElmer 2300 Enspire multimode plate reader.
For each inhibitor, the specific ENPP1 activity was calculated using the following equation: ENPP1 activity (pmol/min/g)=Adjusted Vmax (OD405 nm/min) X conversion factor (pmol/OD405 nm)/amount of enzyme (g)
Adjusted Vmax=V0×(Km+(S))/(S).
V0=(OD405 nm with ENPP1−OD405 nm ENPP1 blank)/minutes. OD405 nm was plotted, with blank subtracted, against time (minutes), the initial linear rate is V0. […]
The slope is the conversion factor. The percent ENPP1 activity for each sample was calculated using the following equation:
% enzyme activity=sample enzyme activity/MAX Activity×100%.
To determine the IC50 for each compound, compound concentration values and percent enzyme activity values were inserted into GraphPad Prism (GraphPad Prism version 7.0 for Windows, GraphPad Software, La Jolla California USA, www.graphpad.com), and Prism's Transform analysis was used to convert the x-axis values (compound concentration) to logarithms. A sigmoidal variable slope nonlinear regression analysis was performed using the following equation: Y=Bottom+(Top−Bottom)/(1+10^((LogIC50−X)*HillSlope)).

Row | SMILES | Ki [nM]
1 | OB(O)c1ccc(CNc2ncnc3cc[nH]c23)cc1 [Cpd. 4, 4-([5H-pyrrolo[3,2-d]pyrimidin-4-ylamino]methyl)phenyl-boronic acid] | < 10000
2 | CC(=O)Nc1c[nH]c2c(NCc3ccc(B(O)O)cc3)ncnc12 [compound 7, 4-[([7-acetamido-5H-pyrrolo[3,2-d]pyrimidin-4-yl]amino)-methyl]phenylboronic acid] | < 1000
3 | OB(O)c1ccc(CNc2ncnc3nc[nH]c23)cc1 [compound 20, 4-[(7H-purin-6-ylamino)methyl]phenylboronic acid] | < 10000
4 | O=C(Nc1csc2c(NCc3ccc(B(O)O)cc3)ncnc12)c1ccccc1 [compound 24, 4-[([7-benzamidothieno[3,2-d]pyrimidin-4-yl]amino)-methyl]phenylboronic acid] | > 10000
5 | CNC(=O)c1n[nH]c2c(NCc3ccc(B(O)O)cc3)ncnc12 [Cpd. 22] | > 10000
6 | O=CNc1csc2c(C#Cc3ccc(B(O)O)cc3)ncnc12 [compound 36, 4-(2-[7-formamidothieno[3,2-d]pyrimidin-4-yl]ethynyl)-phenylboronic acid] | < 1000
7 | CC(C)C(=O)Nc1csc2c(NCc3ccc(B(O)O)cc3)ncnc12 [compound 23, 4-([[7-(2-methylpropanamido)thieno[3,2-d]pyrimidin-4-yl]-amino]methyl)phenylboronic acid] | > 10000
8 | CN(C)C(=O)c1c[nH]c2c(NCc3ccc(B(O)O)cc3)ncnc12 [compound 11, 4-([[7-(dimethylcarbamoyl)-5H-pyrrolo[3,2-d]pyrimidin-4-yl]-amino]methyl)phenylboronic acid] | < 1000
9 | Cn1ncc2nc(-c3cccnc3)nc(NCc3ccc(B(O)O)cc3)c21 [compound 31, 4-([[1-methyl-5-(pyridin-3-yl)pyrazolo[4,3-d]pyrimidin-7-yl]amino]methyl)-phenylboronic acid] | < 1000
10 | Cn1ncc2nc(C=Cc3ccccc3)nc(NCc3ccc(B(O)O)cc3)c21 (mixture of isomers) [compound 34, 4-[([1-methyl-5-[2-phenylethenyl]pyrazolo[4,3-d]pyrimidin-7-yl]amino)-methyl]phenylboronic acid] | < 1000
11 | CC(C)NC(=O)c1c[nH]c2c(NCc3ccc(B(O)O)cc3)ncnc12 [compound 14, 4-([[7-(isopropylcarbamoyl)-5H-pyrrolo[3,2-d]pyrimidin-4-yl]amino]methyl)phenylboronic acid] | < 1000
12 | Cc1nc(NCc2ccc(B(O)O)cc2)c2c(cnn2C)n1 [compound 5, 4-[([1,5-dimethylpyrazolo[4,3-d]pyrimidin-7-yl]amino)-methyl]phenylboronic acid] | < 1000
13 | CCC(=O)Nc1csc2c(NCc3ccc(B(O)O)cc3)ncnc12 [compound 3, 4-[([7-propanamidothieno[3,2-d]pyrimidin-4-yl]amino)-methyl]phenylboronic acid] | < 1000

Continued, values first:

Row | Ki [nM] | SMILES
14 | < 100 | CC(C)c1nc(NCc2ccc(B(O)O)cc2)c2c(cnn2C)n1 [compound 6, 4-[([5-isopropyl-1-methylpyrazolo[4,3-d]pyrimidin-7-yl]-amino)methyl]phenylboronic acid]
15 | < 1000 | NC(=O)c1c[nH]c2c(NCc3ccc(B(O)O)cc3)ncnc12 [compound 16, 4-[([7-carbamoyl-5H-pyrrolo[3,2-d]pyrimidin-4-yl]amino)-methyl]phenylboronic acid]
16 | < 100 | Cn1cnc2ncnc(NCc3ccc(B(O)O)cc3)c21 [compound 19, 4-[[(7-methylpurin-6-yl)amino]methyl]phenylboronic acid]
17 | < 100 | COC(=O)c1csc2c(NCc3ccc(B(O)O)cc3)ncnc12 [compound 38, 4-([[7-(methoxycarbonyl)thieno[3,2-d]pyrimidin-4-yl]-amino]methyl)-phenylboronic acid]
18 | < 100 | NC(=O)c1csc2c(NCc3ccc(B(O)O)cc3)ncnc12 [compound 39, 4-[([7-carbamoylthieno[3,2-d]pyrimidin-4-yl]amino)-methyl]phenylboronic acid]
19 | < 1000 | CC(=O)Nc1cn(C)c2c(NCc3ccc(B(O)O)cc3)ncnc12 [Cpd. 2, 4-[([7-acetamido-5-methylpyrrolo[3,2-d]pyrimidin-4-yl]-amino)methyl]phenylboronic acid]
20 | < 100 | CC(=O)Nc1csc2c(NCc3ccc(B(O)O)cc3)ncnc12 [Cpd. 8, 4-[([7-acetamidothieno[3,2-d]pyrimidin-4-yl]amino)-methyl]phenylboronic acid]
21 | < 1000 | OB(O)c1ccc(CNc2nc(-c3ccccc3)nc3cn[nH]c23)cc1 [compound 28, 4-[([5-phenyl-1H-pyrazolo[4,3-d]pyrimidin-7-yl]amino)-methyl]phenylboronic acid]
22 | < 100 | CCNC(=O)c1c[nH]c2c(NCc3ccc(B(O)O)cc3)ncnc12 [compound 10, 4-([[7-(ethylcarbamoyl)-5H-pyrrolo[3,2-d]pyrimidin-4-yl]-amino]methyl)phenylboronic acid; formic acid]
23 | < 100 | Cn1ncc2nc(-c3ccncc3)nc(NCc3ccc(B(O)O)cc3)c21 [compound 32, 4-([[1-methyl-5-(pyridin-4-yl)pyrazolo[4,3-d]pyrimidin-7-yl]amino]methyl)phenylboronic acid]
24 | < 100 | OB(O)c1ccc(CNc2ncnc3ccsc23)cc1 [compound 26, 4-([thieno[3,2-d]pyrimidin-4-ylamino]methyl)phenyl-boronic acid.]
25 | < 100 | Cn1ncc2ncnc(NCc3ccc(B(O)O)cc3)c21 [compound 18, 4-[([1-methylpyrazolo[4,3-d]pyrimidin-7-yl]amino)methyl]-phenylboronic acid]
26 | < 100 | Cn1ncc2nc(-c3cnccn3)nc(NCc3ccc(B(O)O)cc3)c21 [compound 33, 4-([[1-methyl-5-(pyrazin-2-yl)pyrazolo[4,3-d]pyrimidin-7-yl]amino]methyl)-phenylboronic acid]
27 | < 100 | CNC(=O)c1csc2c(NCc3ccc(B(O)O)cc3)ncnc12 [compound 12, 4-([[7-(methylcarbamoyl)thieno[3,2-d]pyrimidin-4-yl]-amino]methyl)phenylboronic acid]
28 | < 100 | CNC(=O)c1c[nH]c2c(NCc3ccc(B(O)O)cc3)ncnc12 [compound 17, 4-([[7-(methylcarbamoyl)-5H-pyrrolo[3,2-d]pyrimidin-4-yl]amino]methyl)phenylboronic acid; formic acid]
29 | < 100 | Cn1ncc2nc(-c3ccccn3)nc(NCc3ccc(B(O)O)cc3)c21 [compound 30, 4-([[1-methyl-5-(pyridin-2-yl)pyrazolo[4,3-d]pyrimidin-7-yl]amino]-methyl)phenylboronic acid]
30 | < 100 | OB(O)c1ccc(CNc2ncnc3cn[nH]c23)cc1 [compound 9, 4-([1H-pyrazolo[4,3-d]pyrimidin-7-ylamino]methyl)-phenylboronic acid]
31 | < 100 | O=CNc1csc2c(NCc3ccc(B(O)O)cc3)ncnc12 [compound 25, 4-[([7-formamidothieno[3,2-d]pyrimidin-4-yl]amino)-methyl]phenylboronic acid]
32 | < 100 | N#Cc1c[nH]c2c(NCc3ccc(B(O)O)cc3)ncnc12 [compound 15, 4-[([7-cyano-5H-pyrrolo[3,2-d]pyrimidin-4-yl]amino)methyl]phenylboronic acid]
33 | < 100 | Cn1ccc2ncnc(NCc3ccc(B(O)O)cc3)c21 [compound 1, 4-[([5-methylpyrrolo[3,2-d]pyrimidin-4-yl]amino)-methyl]phenylboronic acid; formic acid]
